Source: patent publication US20200131669A1, “CYCLIC PEPTIDE COMPOUND HAVING HIGH MEMBRANE PERMEABILITY, AND LIBRARY CONTAINING SAME” (Chugai Seiyaku Kabushiki Kaisha, priority 2017, published 2020)
Starred links: 1 amine or outer side, 2 acyl side, 3 side chain; linkers in the order of their positions; H or OH if unused. Positions of bridges follow the written chain, without caps; N, C: chain ends. Non-standard residues stand in square brackets, D forms with d. Residues, ends and D or L forms follow the SMILES beside them. *: point of attachment. hNle(7,7-F2) = N[C@@H](CCCCC(F)F)C(=O)O; NMehPhe = CN[C@@H](CCc1ccccc1)C(=O)O; dNMehPhe = CN[C@H](CCc1ccccc1)C(=O)O; NMeF = CN[C@@H](Cc1ccccc1)C(=O)O; NMeGABA = CN(CCCC(=O)[*:2])[*:1]; NMeI = CC[C@H](C)[C@H](NC)C(=O)O; NMeL = CN[C@@H](CC(C)C)C(=O)O; NMeV = CN[C@H](C(=O)O)C(C)C; NMeA = CN[C@@H](C)C(=O)O; Piperidide = C1CCN(*)CC1; Abu = CC[C@H](N)C(=O)O; Isopentyl = CC(C)CC*; NPrGly = CCCNCC(=O)O; Sar = CNCC(=O)O; tBu = CC(C)(C)*; Propyl = CCC*

Experiment: Caco-2 membrane permeability, improved method as used in the following Examples (96-well, 20 to 24 h preincubation)
Format: in vitro ADME
Conditions: human, Caco-2, Caco-2
How it was run: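 Papp (cm/sec) was derived from LC/MS of basal samples collected 180 min after apical dosing in FaSSIF/HBSS pH 6.0 with 1% DMSO, against a basal HBSS pH 7.4 receiver containing 4% BSA. Three-week Caco-2 cultures were first preincubated with compound in DMEM+FaSSIF at 37 °C for 20–24 h.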

Row | Structure (SMILES) | Papp A→B at 180 min
1 | CC[C@@H]1NC(=O)[C@@H](CCc2ccccc2)N(C)C(=O)[C@H](CC(C)C)N(C)C(=O)[C@H](CC(C)C)NC(=O)[C@H](C)N(C)C(=O)C[C@@H](C(=O)N2CCCCC2)NC(=O)[C@H](CC(C)C)N(C)C(=O)CN(C)C(=O)[C@H]([C@@H](C)O)NC(=O)[C@H](CC(C)C)N(C)C(=O)[C@H](Cc2ccccc2)N(C)C1=O [pd322] ([NMeA]L[NMeL][dNMehPhe][Abu][NMeF][NMeL]T[Sar][NMeL]D-Piperidide; lactam N-11) | 3.1 ×10⁻⁶ cm/s
2 | CC(C)C[C@@H]1NC(=O)[C@H](C)N(C)C(=O)C[C@@H](C(=O)N2CCCCC2)NC(=O)[C@H](CC(C)C)N(C)C(=O)CN(C)C(=O)[C@H]([C@@H](C)O)NC(=O)[C@H](CC(C)C)N(C)C(=O)[C@H](CCc2ccccc2)N(C)C(=O)[C@H](CC(C)C)NC(=O)[C@H](Cc2ccccc2)N(C)C(=O)[C@H](CC(C)C)N(C)C1=O [pd323] ([NMeA]L[NMeL][NMeF]L[NMehPhe][NMeL]T[Sar][NMeL]D-Piperidide; lactam N-11) | 2.3 ×10⁻⁶ cm/s
3 | CC[C@H](C)[C@@H]1NC(=O)[C@H](Cc2ccccc2)N(C)C(=O)CN(C)C(=O)C[C@@H](C(=O)N2CCCCC2)NC(=O)[C@H](CC(C)C)N(C)C(=O)[C@H](COC(C)(C)C)NC(=O)[C@H](CC(C)C)N(C)C(=O)[C@H](CCc2ccccc2)N(C)C(=O)CN(C)C(=O)[C@H]([C@@H](C)O)NC(=O)[C@H](CC(C)C)N(C)C1=O [pd324] ([Sar][NMeF]I[NMeL]T[Sar][NMehPhe][NMeL]S(tBu)[NMeL]D-Piperidide; lactam N-11) | 3.3 ×10⁻⁶ cm/s
4 | CCCOC[C@@H]1NC(=O)[C@H](CC(C)C)N(C)C(=O)CN(C)C(=O)[C@H]([C@@H](C)O)NC(=O)[C@H](CC(C)C)N(C)C(=O)[C@H](CC(C)C)NC(=O)[C@H](Cc2ccccc2)N(C)C(=O)[C@@H](C(C)C)NC(=O)C[C@@H](C(=O)N2CCCCC2)NC(=O)[C@H](CC(C)C)N(C)C(=O)[C@H](Cc2ccccc2)N(C)C1=O [pd325] ([dV][NMeF]L[NMeL]T[Sar][NMeL]S(Propyl)[NMeF][NMeL]D-Piperidide; lactam N-11) | 2.2 ×10⁻⁶ cm/s
5 | CCCOC[C@@H]1NC(=O)[C@H](CC(C)C)N(C)C(=O)[C@H](C(C)C)NC(=O)[C@H](Cc2ccccc2)N(C)C(=O)[C@@H](C(C)C)NC(=O)C[C@@H](C(=O)N2CCCCC2)NC(=O)[C@H](C)N(C)C(=O)[C@H](Cc2ccccc2)N(C)C(=O)[C@H](COC(C)(C)C)NC(=O)[C@H](CC(C)C)N(C)C(=O)CN(C)C1=O [pd326] ([dV][NMeF]V[NMeL]S(Propyl)[Sar][NMeL]S(tBu)[NMeF][NMeA]D-Piperidide; lactam N-11) | 3.3 ×10⁻⁶ cm/s
6 | CCCOC[C@@H]1NC(=O)[C@H](Cc2ccccc2)N(C)C(=O)[C@@H](C(C)C)NC(=O)C[C@@H](C(=O)N2CCCCC2)NC(=O)[C@H](CC(C)C)N(C)C(=O)[C@H](Cc2ccccc2)N(C)C(=O)[C@H](COC(C)(C)C)NC(=O)[C@H](CC(C)C)N(C)C(=O)CN(C)C(=O)[C@H]([C@@H](C)O)NC(=O)[C@H](CC(C)C)N(C)C1=O [pd327] ([dV][NMeF]S(Propyl)[NMeL]T[Sar][NMeL]S(tBu)[NMeF][NMeL]D-Piperidide; lactam N-11) | 3.1 ×10⁻⁶ cm/s
7 | CCCOC[C@@H]1NC(=O)[C@H](Cc2ccccc2)N(C)C(=O)[C@H](Cc2ccccc2)N(C)C(=O)[C@H](C(C)C)NC(=O)[C@H](CC(C)C)N(C)C(=O)CCCN(C)C(=O)C[C@@H](C(=O)N2CCCCC2)NC(=O)[C@H](CC(C)C)N(C)C(=O)[C@H](CC(C)C)N(C)C(=O)[C@H]([C@@H](C)O)NC(=O)[C@H](CC(C)C)N(C)C1=O [pd328] ([NMeGABA][NMeL]V[NMeF][NMeF]S(Propyl)[NMeL]T[NMeL][NMeL]D-Piperidide; lactam N-11) | 2.3 ×10⁻⁶ cm/s
8 | CCCOC[C@@H]1NC(=O)[C@H](Cc2ccccc2)N(C)C(=O)[C@H](CC(C)C)N(C)C(=O)[C@H](CC(C)C)NC(=O)[C@H](C)N(C)C(=O)C[C@@H](C(=O)N2CCCCC2)NC(=O)[C@H](CC(C)C)N(C)C(=O)CN(C)C(=O)[C@H]([C@@H](C)O)NC(=O)[C@H](CC(C)C)N(C)C(=O)[C@H](Cc2ccccc2)N(C)C1=O [pd329] ([NMeA]L[NMeL][NMeF]S(Propyl)[NMeF][NMeL]T[Sar][NMeL]D-Piperidide; lactam N-11) | 4.2 ×10⁻⁶ cm/s
9 | CCCOC[C@@H]1NC(=O)[C@H](CC(C)C)N(C)C(=O)[C@H](Cc2ccccc2)N(C)C(=O)CN(C)C(=O)[C@H]([C@@H](C)O)NC(=O)[C@H](CC(C)C)N(C)C(=O)[C@H]([C@@H](C)CC)NC(=O)[C@H](Cc2ccccc2)N(C)C(=O)CN(C)C(=O)C[C@@H](C(=O)N2CCCCC2)NC(=O)[C@H](CC(C)C)N(C)C1=O [pd330] ([Sar][NMeF]I[NMeL]T[Sar][NMeF][NMeL]S(Propyl)[NMeL]D-Piperidide; lactam N-11) | 1.8 ×10⁻⁶ cm/s
10 | CC(C)C[C@H]1C(=O)N[C@@H](COC(C)(C)C)C(=O)N(C)[C@@H](Cc2ccccc2)C(=O)N(C)[C@@H](C(C)C)C(=O)N[C@H](C(=O)N2CCCCC2)CC(=O)N[C@H](C(C)C)C(=O)N(C)[C@@H](Cc2ccccc2)C(=O)N[C@@H](CCCCC(F)F)C(=O)N(C)[C@@H](CC(C)C)C(=O)N[C@@H]([C@@H](C)O)C(=O)N(C)CC(=O)N1C [pd331] ([dV][NMeF][hNle(7,7-F2)][NMeL]T[Sar][NMeL]S(tBu)[NMeF][NMeV]D-Piperidide; lactam N-11) | 2.1 ×10⁻⁶ cm/s
11 | CC(C)C[C@@H]1NC(=O)[C@H](Cc2ccccc2)N(C)C(=O)[C@@H](C(C)C)NC(=O)C[C@@H](C(=O)N2CCCCC2)NC(=O)[C@H](C(C)C)N(C)C(=O)[C@H](Cc2ccccc2)N(C)C(=O)[C@H](CCCCC(F)F)NC(=O)[C@H](CC(C)C)N(C)C(=O)CN(C)C(=O)[C@H]([C@@H](C)O)NC(=O)[C@H](CC(C)C)N(C)C1=O [pd332] ([dV][NMeF]L[NMeL]T[Sar][NMeL][hNle(7,7-F2)][NMeF][NMeV]D-Piperidide; lactam N-11) | 1.5 ×10⁻⁶ cm/s
12 | CC[C@H](C)[C@@H]1NC(=O)[C@H](CC(C)C)N(C)C(=O)CCCN(C)C(=O)C[C@@H](C(=O)N2CCCCC2)NC(=O)[C@H](CC(C)C)N(C)C(=O)[C@H](C)N(C)C(=O)[C@H]([C@@H](C)O)NC(=O)[C@H](CC(C)C)N(C)C(=O)[C@H](CCCCC(F)F)NC(=O)[C@H](Cc2ccccc2)N(C)C(=O)[C@H](Cc2ccccc2)N(C)C1=O [pd333] ([NMeGABA][NMeL]I[NMeF][NMeF][hNle(7,7-F2)][NMeL]T[NMeA][NMeL]D-Piperidide; lactam N-11) | 1.3 ×10⁻⁶ cm/s
13 | CC[C@H](C)[C@H]1C(=O)N[C@@H]([C@@H](C)O)C(=O)N(C)CC(=O)N(C)[C@@H](CC(C)C)C(=O)N[C@H](C(=O)N2CCCCC2)CC(=O)N(C)[C@@H](C)C(=O)N[C@@H](CCCCC(F)F)C(=O)N(C)[C@@H](CC(C)C)C(=O)N(C)[C@@H](Cc2ccccc2)C(=O)N[C@@H](C(C)C)C(=O)N(C)[C@@H](Cc2ccccc2)C(=O)N1C [pd334] ([NMeA][hNle(7,7-F2)][NMeL][NMeF]V[NMeF][NMeI]T[Sar][NMeL]D-Piperidide; lactam N-11) | 2.4 ×10⁻⁶ cm/s
14 | CC[C@H](C)[C@H]1C(=O)N[C@@H]([C@@H](C)O)C(=O)N(C)CC(=O)N(C)[C@@H](CC(C)C)C(=O)N[C@H](C(=O)N2CCCCC2)CC(=O)N(C)[C@@H](C)C(=O)N[C@@H](CC(C)C)C(=O)N(C)[C@@H](CC(C)C)C(=O)N(C)[C@@H](Cc2ccccc2)C(=O)N[C@@H](CCCCC(F)F)C(=O)N(C)[C@@H](Cc2ccccc2)C(=O)N1C [pd335] ([NMeA]L[NMeL][NMeF][hNle(7,7-F2)][NMeF][NMeI]T[Sar][NMeL]D-Piperidide; lactam N-11) | 2 ×10⁻⁶ cm/s
15 | CCCN1CC(=O)N(C)[C@@H](Cc2ccccc2)C(=O)N[C@@H](CCCCC(F)F)C(=O)N(C)[C@@H](CC(C)C)C(=O)N[C@@H]([C@@H](C)O)C(=O)N(C)CC(=O)N(C)[C@@H](Cc2ccccc2)C(=O)N(C)[C@@H](CC(C)C)C(=O)N[C@@H](COC(C)(C)C)C(=O)N(C)[C@@H](C(C)C)C(=O)N[C@H](C(=O)N2CCCCC2)CC1=O [pd336] ([NPrGly][NMeF][hNle(7,7-F2)][NMeL]T[Sar][NMeF][NMeL]S(tBu)[NMeV]D-Piperidide; lactam N-11) | 2.5 ×10⁻⁶ cm/s
16 | CC(C)CCOC[C@@H]1NC(=O)[C@H](CC(C)C)N(C)C(=O)[C@H](Cc2ccccc2)N(C)C(=O)CN(C)C(=O)[C@H]([C@@H](C)O)NC(=O)[C@H](CC(C)C)N(C)C(=O)[C@H](CCCCC(F)F)NC(=O)[C@H](Cc2ccccc2)N(C)C(=O)CN(C)C(=O)C[C@@H](C(=O)N2CCCCC2)NC(=O)[C@H](CC(C)C)N(C)C1=O [pd338] ([Sar][NMeF][hNle(7,7-F2)][NMeL]T[Sar][NMeF][NMeL]S(Isopentyl)[NMeL]D-Piperidide; lactam N-11) | 1.8 ×10⁻⁶ cm/s
17 | CC(C)C[C@H]1C(=O)N[C@@H](COC(C)(C)C)C(=O)N(C)[C@@H](Cc2ccccc2)C(=O)N(C)[C@@H](C(C)C)C(=O)N[C@H](C(=O)N2CCCCC2)CC(=O)N[C@H](C(C)C)C(=O)N(C)[C@@H](CC(C)C)C(=O)N[C@@H](COc2ccccc2Cl)C(=O)N(C)[C@@H](C)C(=O)N[C@@H]([C@@H](C)O)C(=O)N(C)CC(=O)N1C [pd339] | 2.6 ×10⁻⁶ cm/s
18 | CC(C)C[C@H]1C(=O)N[C@@H](COC(C)(C)C)C(=O)N(C)[C@@H](C)C(=O)N(C)[C@@H](CC(C)C)C(=O)N[C@H](C(=O)N2CCCCC2)CC(=O)N[C@H](C)C(=O)N(C)[C@@H](Cc2ccccc2)C(=O)N[C@@H](COc2ccccc2Cl)C(=O)N(C)[C@@H](CC(C)C)C(=O)N[C@@H]([C@@H](C)O)C(=O)N(C)CC(=O)N1C [pd340] | 1.2 ×10⁻⁶ cm/s
